Key:
[1] = system: HssRS-dependent hrtAB expression; test: Luminescence-based assay to monitor HssRS-dependent hrtAB expression (phrtABlux reporter), Newman; format: cell-based, Staphylococcus aureus; conditions: Newman; for activation at 0.0825 µM: Staphylococcus aureus, NEWMAN, read-out: % Lumi, luminescence induced by the compound compared to the heme control (82.5 nM) in the same plate; for Luminescence: raw luminescence value obtained in a luminometer
Procedure: (§1) With reference to Table 1, “Luminescence” refers to the raw luminescence value obtained in a luminomter. “Control (82.5 nm)” refers to the luminescence value obtained from heme at 82.5 nM as a positive control in the same plate as the experimental. “% lum” is the percentage of luminescence induced by the compound as compared to the heme control in the same plate. […] All of these assays are described in the application. […] “N/T” indicates the test was not performed.
A hrtAB-driven expression system was created in the pXen vector system (Xenogen) (Francis, K. P., D. Joh, C. Bellinger-Kawahara, M. J. Hawkinson, T. F. Purchio, and P. R. Contag. 2000. Monitoring bioluminescent Staphylococcus aureus infections in living mice using a novel luxABCDE construct. Infect Immun 68:3594-3600). This vector contains a promoterless luxCDABE operon from Photorabdus luminescens which produces blue green light when expressed. The luxCDABE encodes for a fatty acid reductase (LuxCDE) that produces a long chain fatty aldehyde which, when combined with cellular flavin mononucleotide, is oxidized by a luciferase (LuxAB) to produce light. Therefore, this system is useful in that it bypasses the need for substrate addition and is capable of generating light in the absence of any added reagents. Furthermore, the luminescent signal produced by the combined activities of LuxAB and LuxCDE is of sufficient intensity to be visualized in unmanipulated intact bacteria.
To establish an assay that measures HssRS-dependent expression of luxCDABE, the promoter for hrtAB upstream of luxCDABE was cloned and transformed this vector (phrtABlux) into wildtype and ΔhssR S. aureus. A promoterless vector (plux) and a plasmid containing luxCDABE under the control of a constitutive promoter (psrtAlux) (Mazmanian, S. K., G. Liu, H. Ton-That, and O. Schneewind. 1999. “Staphylococcus aureus sortase, an enzyme that anchors surface proteins to the cell wall.” Science 285:760-763) were included as negative and positive controls, respectively. Initially, wildtype S. aureus harboring either plux, phrtABlux, or psrtAlux were plated on solid medium that either lacked heme or contained 4 μM heme. Only wildtype S. aureus containing psrtAlux produced light on solid media regardless of the presence or absence of heme. […] Light was not produced by bacteria containing plux in either condition.
To adapt this system for a HTS to measure ligand recognition by HssRS, luminescence of wildtype and ΔhssR harboring the above listed plasmids in liquid media with or without heme was measured. […] Taken together, these experiments establish a whole cell […] assay that can identify small molecule modifiers of HssRS. This screen, in some aspects, can identify molecules that can be used as molecular probes in structure-function analyses to determine the mechanism by which S. aureus sense host heme.
Upon staphylococcal exposure to heme, HssRS senses heme and activates expression of hrtAB. This process can be measured using a reporter assay that employs a vector encoding the light-producing luxCDABE operon under the control of the hrtAB promoter. This assay results in whole cell luminescence upon HssRS-dependent activation of hrtAB, forming the foundation for the development of an assay suitable for high-throughput screens for small molecule activators of HssRS.
To develop an automated HTS format, S. aureus wildtype and ΔhssR harboring reporter constructs (psrtAlux, phrtAlux, plux) can be grown for 15 hours at 37° C. in tryptic soy broth (TSB) containing 10 μg/ml chloramphenicol. The addition of chloramphenicol is useful to ensure that the staphylococci propagate the reporter plasmid upon cell division. Following growth, bacterial cultures can be normalized and 2×10^7 cells (approximately 2 μl) can be added to individual wells of black walled, clear bottomed, 96-well plates. […]

[2] = system: hrtAB-driven expression of the xylE reporter gene; test: XylE reporter assay (hrtAB promoter-xylE), Newman; format: cell-based, Staphylococcus aureus; conditions: for XylE (0.05): level of XylE induction at 0.05 uM of the compound; for XylE (0.5): level of XylE induction at 0.5 uM of the compound; for XylE (5.0): level of XylE induction at 5.0 uM of the compound; for XylE (50.0): level of XylE induction at 50.0 uM of the compound
Procedure: as §1
Compounds that activate HssRS-driven hrtAB expression in the luciferase-based screen can be subjected to two separate counter screens to confirm these compounds as active hits. First, compounds of interest can be tested for their ability to activate expression of hrtAB in the XylE expression assay described hereinbelow. This is an in vitro assay that measures hrtAB-driven expression of the xylE reporter gene. The XylE-based reporter assay utilizes slightly more manipulations than the primary luciferase-based screen. […] It should be appreciated that a shortcoming of this counter screen is that it measures reporter gene expression, which is a similar activity as that measured in the primary assay. To address this shortcoming, compounds that are positive in both XylE- and luciferase-based assays can be subjected to a second counter screen as described hereinbelow.
S. aureus strains harboring the appropriate reporter construct were inoculated into 500 μl of TSB containing 10 μg/ml chloramphenicol in 1.5 ml tubes. Cultures were grown O/N at 37° C. with shaking. Bacteria were pelleted by centrifugation and spent medium was aspirated. The pellet was washed once with 500 μl of 20 mM potassium phosphate, pH 7.6, and resuspended in 150 μl of 100 mM potassium phosphate buffer, pH 8.0, 10% (v/v) acetone, 25 μg/ml lysostaphin. After 20 minute incubation at 37° C. and 5 minute incubation on ice, samples were centrifuged at 20,000 g for 30 minutes at 4° C. 1-10 μl of supernatant was added to a 96-well plate and 200 μl of 100 mM potassium phosphate, pH 8.0, 0.2 mM pyrocatechol was added to each well. Formation of 2-hydroxymuconic semialdehyde was tracked by measuring the absorbance at 375 nm every minute for 30 minutes on a Varian MP 50 microplate reader. Protein concentration in samples was determined by BCA (Pierce). One unit of specific activity of XylE in a sample is defined as the formation of 1 nmol of 2-hydroxymuconic semialdehyde per minute per milligram of cellular protein at 30° C. (Chien, Y., Manna, A. C., Projan, S. J., and Cheung, A. L. 1999, “SarA, a global regulator of virulence determinants in Staphylococcus aureus, binds to a conserved motif essential for sar-dependent gene regulation. J. Biol. Chem. 274, 37169-37176).
The hrtAB intergenic region was fused to the xylE structural gene by PCR-SOE. In the first reaction, primer P1B:[…] and P2B:[…] were used to amplify the hrtAB intergenic region from S. aureus strain Newman genomic DNA. In the second PCR reaction primers P3B:[…] and P4B:[…] were used to amplify the xylE structural gene using pALC1639 template DNA (provided by Dr. Ambrose Cheung) and PCR product purified using a Qiagen gel extraction kit. For the PCRSOE reaction, a 1:300 dilution of purified reaction 1 and reaction 2 PCR products was mixed and amplified by PCR using […]. This yielded a construct in which the hrtAB intergenic region is fused to the xylE gene in such a manner that the position of the start codon for xylE corresponds to the position of the start codon for […] in the hrtAB locus. The hrtAB promoter-xylE fusion DNA was then subcloned into pOS1. As a control we also constructed a promoterless xylE vector. The xylE gene was amplified from pACL1639 template DNA using the primers P1C:[…] and P2C:[…] and then cloned into the pOS1 vector.

SMILES	activation at 0.0825 µM [1]	Luminescence [1]	XylE (0.05) [2]	XylE (0.5) [2]	XylE (5.0) [2]	XylE (50.0) [2]
CC1(C)CC(=O)C(=CNCc2ccc(F)cc2)C(=O)C1	120%	1003	0.07	0.09	0.9	0.06
CSc1ccc(NC=C2C(=O)CC(C)(C)CC2=O)cc1	161%	1347	0.04	0.05	0.01	1
C/C=C/C=N/Nc1nnc2c(n1)[nH]c1ccccc12	202%	1696	0.04	0.06	0.1	1
O=C1c2ccccc2C(=O)C1C1=NNC(c2ccccc2)C1 (centres unmarked)	81.7%	2680	0.05	0.06	0.1	0.8
COc1ccc(/N=c2\nc(-c3ccccc3)n(-c3ccc(C)cc3)s2)cc1	266%	757	0.02	0.04	0	0
O=C(Nc1ccc(NC(=O)c2ccccc2)c(Cl)c1)c1ccccc1	102%	291	0.06	0.05	0.07	0.02
Cc1cc(-c2ccc(N)cc2)nc2ccc3ccccc3c12	136%	576	0.09	0.06	0.02	0.04
Cc1cccc(NC(=O)c2cc3ccccc3cc2O)c1	217%	794	0.02	0.09	0.1	0.02
CC(/C=N/NC(=O)C1COc2ccccc2O1)=C\c1ccccc1 (centres unmarked)	139%	507	0.07	0.04	0.2	0.05
Cc1cccc(NC(=S)N/N=C/c2cc(Br)ccc2O)c1	161%	589	0.09	0.2	0	0
NS(=O)(=O)c1ccc(NC(=O)CCCOc2ccc(Cl)cc2Cl)cc1	45.6%	325	0.03	0.05	3	0
O=C(Nc1ccccc1C(=O)Nc1ccc(Cl)cc1)c1ccccc1	92%	309	0.05	0.08	0.08	0.06
COc1ccc(CN2CCCN(C)CC2)c(C)c1C	127%	534	0	0	1	1
CCc1ccccc1NC(=O)C1CCCCC1C(=O)O (centres unmarked)	136%	576	1	0.05	0.02	1
Brc1ccc(CN2CCN(c3ccccc3)CC2)o1	39.3%	166	0.07	0.05	1	0.02
Oc1ccc(CCNC2CCCc3c2[nH]c2ccc(-c4ccccc4)cc32)cc1 (centres unmarked)	127%	534	0.06	0.02	1	1
O=S(=O)(Nc1cc(Cl)ccc1Cl)c1ccc(Cl)cc1	146%	618	0.02	0.07	0.5	0.1
COc1ccc(Cl)cc1NC(=O)Nc1ccc(Cl)cc1	180%	586	1	0.03	0	0.03
O=C(/C=C/c1ccc([N+](=O)[O-])s1)Nc1ccc(I)cc1	107%	678	0.09	4	5	6
Cc1cc(O)c(NC(=S)NC(=O)c2ccc(C(C)(C)C)cc2)cc1C	127%	808	0.09	0.2	0.2	0.3
O=[N+]([O-])c1ccc(O)c(C2NN=C(Cc3ccccc3)S2)c1 (centres unmarked)	871%	2805	0.02	0.05	1	1
NS(=O)(=O)c1ccc(Nc2nc(-c3ccc(Cl)cc3)cs2)cc1	–	4946	0.04	1	1	0.02

From US8263642B2, “Antimicrobial compounds and methods of use thereof” (Vanderbilt University, priority 2008, dated 2012)
